Data taken from ChEMBL document CHEMBL5050844 (2019).

Key:
[1] = Induction of anti-CD3/CD28 antibodies-stimulated human T cell activation at 1 uM assessed fold increase in CD25 expression measured by ELISA assay; assay type: functional, T cell line
[2] = Induction of anti-CD3/CD28 antibodies-stimulated human T cell activation at 0.3 uM assessed fold increase in CD25 expression measured by ELISA assay; assay type: functional, T cell line
[3] = Induction of anti-CD3 antibodies-stimulated human T cell activation at 1 uM assessed fold increase in CD25 expression measured by ELISA assay; assay type: functional, T cell line; note: reference of the scale not given here
[4] = Induction of anti-CD3/CD28 antibodies-stimulated human T cell activation at 0.3 uM assessed fold increase in IL-2 secretion measured by ELISA assay; assay type: functional, T cell line
[5] = Induction of anti-CD3/CD28 antibodies-stimulated human T cell activation at 1 uM assessed fold increase in IL-2 secretion measured by ELISA assay; assay type: functional, T cell line
[6] = Induction of anti-CD3 antibodies-stimulated human T cell activation at 1 uM assessed fold increase in IL-2 secretion measured by ELISA assay; assay type: functional, T cell line; note: reference of the scale not given here
[7] = Induction of anti-CD3/CD28 antibodies-stimulated human T cell activation at 4 uM assessed fold increase in IL-2 secretion measured by ELISA assay; assay type: functional, T cell line
[8] = Induction of anti-CD3/CD28 antibodies-stimulated human T cell activation at 4 uM assessed fold increase in CD25 expression measured by ELISA assay; assay type: functional, T cell line
[9] = Induction of anti-CD3 antibodies-stimulated human T cell activation at 8 uM assessed fold increase in CD25 expression measured by ELISA assay; assay type: functional, T cell line; note: reference of the scale not given here
[10] = target: E3 ubiquitin-protein ligase CBL-B (Homo sapiens, UniProt Q13191); test: Inhibition of N-terminal Avi-tagged human CBL-B (36 to 427 residues) incubated with 60 nM Src kinase for 1.5 hrs followed by incubation with fluorescently labeled UbcH5B-Ub for 1 hr and measured by TR-FRET assay; assay type: single protein
Sequence of E3 ubiquitin-protein ligase CBL-B (Q13191 whole entry, the tested form may be a part): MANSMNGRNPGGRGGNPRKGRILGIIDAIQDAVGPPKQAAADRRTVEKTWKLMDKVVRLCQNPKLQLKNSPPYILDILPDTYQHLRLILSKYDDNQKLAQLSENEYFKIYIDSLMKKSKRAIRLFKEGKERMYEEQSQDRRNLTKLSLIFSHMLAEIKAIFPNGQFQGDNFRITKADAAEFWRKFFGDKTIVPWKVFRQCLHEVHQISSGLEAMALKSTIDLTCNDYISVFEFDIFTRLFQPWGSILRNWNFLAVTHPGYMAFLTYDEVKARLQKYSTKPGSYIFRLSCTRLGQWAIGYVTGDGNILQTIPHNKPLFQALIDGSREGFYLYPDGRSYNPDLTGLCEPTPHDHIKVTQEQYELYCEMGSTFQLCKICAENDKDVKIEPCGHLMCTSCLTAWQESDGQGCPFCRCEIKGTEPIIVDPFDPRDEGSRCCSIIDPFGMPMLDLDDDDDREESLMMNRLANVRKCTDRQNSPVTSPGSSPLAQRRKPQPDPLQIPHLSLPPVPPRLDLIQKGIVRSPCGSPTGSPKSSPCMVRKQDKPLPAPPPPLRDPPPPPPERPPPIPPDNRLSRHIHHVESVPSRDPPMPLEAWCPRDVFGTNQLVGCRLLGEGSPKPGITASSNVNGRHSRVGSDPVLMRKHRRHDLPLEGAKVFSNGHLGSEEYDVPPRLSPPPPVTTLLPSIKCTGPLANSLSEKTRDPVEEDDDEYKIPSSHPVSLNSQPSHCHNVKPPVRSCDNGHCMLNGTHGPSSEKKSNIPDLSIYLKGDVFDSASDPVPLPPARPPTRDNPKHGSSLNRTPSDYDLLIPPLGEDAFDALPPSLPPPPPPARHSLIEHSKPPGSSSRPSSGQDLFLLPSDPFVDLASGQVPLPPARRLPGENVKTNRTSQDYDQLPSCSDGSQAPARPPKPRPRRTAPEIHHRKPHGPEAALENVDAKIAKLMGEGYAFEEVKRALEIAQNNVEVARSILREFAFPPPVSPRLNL

[11] = Induction of anti-CD3 antibodies-stimulated human T cell activation at 8 uM assessed fold increase in IL-2 secretion measured by ELISA assay; assay type: functional, T cell line; note: reference of the scale not given here

Cn1cnnc1CC1(c2cccc(N3Cc4c(cc(CN5CCCC5=O)cc4C(F)(F)F)C3=O)c2)COC1
fold change (FC) [1]: 1.01 | fold change (FC) [2]: 1.01 | fold change (FC) [3]: >=1.001 | fold change (FC) [4]: 1.01 | fold change (FC) [5]: 1.01 | fold change (FC) [6]: 0.151 | fold change (FC) [7]: 2.51 | fold change (FC) [8]: 1.01 | fold change (FC) [9]: >=1.001 | IC50 [10]: < 100 nM | fold change (FC) [11]: >=0.201

Cc1cc(C(=O)Nc2cccc([C@H](C)Cc3nncn3C)c2)nc(C(F)(F)F)n1
fold change (FC) [1]: 1.51 | fold change (FC) [2]: 1.01 | fold change (FC) [3]: 0.801 | fold change (FC) [4]: 2.51 | fold change (FC) [5]: >=7.5 | fold change (FC) [6]: >=0.201 | fold change (FC) [7]: >=7.5 | fold change (FC) [8]: >=1.76 | fold change (FC) [9]: >=1.001 | IC50 [10]: < 100 nM | fold change (FC) [11]: >=0.201

C[C@@H](c1cc2c(c(C(F)(F)F)c1)CN(c1cccc([C@@](C)(F)C(F)(F)c3nncn3C)c1)C2=O)N1CC[C@H](F)C1
fold change (FC) [1]: 1.51 | fold change (FC) [2]: 1.31 | fold change (FC) [3]: >=1.001 | fold change (FC) [4]: >=7.5 | fold change (FC) [5]: >=7.5 | fold change (FC) [6]: >=0.201 | fold change (FC) [7]: >=7.5 | fold change (FC) [8]: 1.51 | fold change (FC) [9]: >=1.001 | IC50 [10]: < 100 nM | fold change (FC) [11]: >=0.201

Cn1cnnc1CC1(c2cccc(NC(=O)c3cc(C4CC4)nc(C(F)(F)F)n3)c2)COC1
fold change (FC) [1]: 1.31 | fold change (FC) [2]: 1.01 | fold change (FC) [3]: 0.801 | fold change (FC) [4]: 2.51 | fold change (FC) [5]: >=7.5 | fold change (FC) [6]: 0.151 | fold change (FC) [7]: >=7.5 | fold change (FC) [8]: 1.51 | fold change (FC) [9]: >=1.001 | IC50 [10]: < 100 nM | fold change (FC) [11]: >=0.201

C[C@H](Sc1nncn1C)c1cccc(NC(=O)c2cccc(C3CC3)n2)c1
fold change (FC) [1]: 1.51 | fold change (FC) [2]: 1.31 | fold change (FC) [3]: <=0.6 | fold change (FC) [4]: 1.01 | fold change (FC) [5]: 2.51 | fold change (FC) [6]: 0.051 | fold change (FC) [7]: 2.51 | fold change (FC) [8]: 1.51 | fold change (FC) [9]: 0.801 | IC50 [10]: < 100 nM | fold change (FC) [11]: 0.151

C[C@H]1C=CCN1Cc1cc2c(c(C(F)(F)F)c1)CN(c1cccc(C3(Cc4nncn4C)COC3)c1)C2=O
fold change (FC) [1]: 1.51 | fold change (FC) [2]: 1.31 | fold change (FC) [3]: >=1.001 | fold change (FC) [4]: >=7.5 | fold change (FC) [5]: >=7.5 | fold change (FC) [6]: >=0.201 | fold change (FC) [7]: >=7.5 | fold change (FC) [8]: 1.51 | fold change (FC) [9]: >=1.001 | IC50 [10]: < 100 nM | fold change (FC) [11]: >=0.201

Cc1ccc(C(=O)Nc2cccc([C@H](C)Sc3nncn3C)c2)nc1C1CC1
fold change (FC) [1]: 1.01 | fold change (FC) [2]: 1.01 | fold change (FC) [3]: 0.601 | fold change (FC) [4]: 1.01 | fold change (FC) [5]: 2.51 | fold change (FC) [6]: <=0.05 | fold change (FC) [7]: >=7.5 | fold change (FC) [8]: 1.01 | fold change (FC) [9]: 0.801 | IC50 [10]: < 100 nM | fold change (FC) [11]: 0.151

C[C@H](Sc1nncn1C)c1cccc(NC(=O)c2ccc(C#N)c(C3CC3)n2)c1
fold change (FC) [1]: 1.31 | fold change (FC) [2]: 1.01 | fold change (FC) [3]: 0.601 | fold change (FC) [4]: 1.01 | fold change (FC) [5]: 2.51 | fold change (FC) [6]: <=0.05 | fold change (FC) [7]: 5 | fold change (FC) [8]: 1.31 | fold change (FC) [9]: >=1.001 | IC50 [10]: < 100 nM | fold change (FC) [11]: 0.101

C[C@H](Cc1nncn1C)c1cc(NC2COC2)nc(N2Cc3c(cccc3C(F)(F)F)C2=O)c1
fold change (FC) [1]: 1.01 | fold change (FC) [2]: 1.01 | fold change (FC) [3]: 0.801 | fold change (FC) [4]: 1.01 | fold change (FC) [5]: 1.01 | fold change (FC) [6]: 0.051 | fold change (FC) [7]: 5 | fold change (FC) [8]: 1.31 | fold change (FC) [9]: >=1.001 | IC50 [10]: < 100 nM | fold change (FC) [11]: >=0.201

C[C@H](Cc1nncn1C)c1cccc(NC(=O)c2ccnc(C3CC3)n2)c1
fold change (FC) [1]: 1.31 | fold change (FC) [2]: 1.01 | fold change (FC) [3]: >=1.001 | fold change (FC) [4]: 2.51 | fold change (FC) [5]: 5 | fold change (FC) [6]: >=0.201 | fold change (FC) [7]: >=7.5 | fold change (FC) [8]: 1.51 | fold change (FC) [9]: >=1.001 | IC50 [10]: < 100 nM | fold change (FC) [11]: >=0.201

Cn1cnnc1CC1(c2cccc(N3Cc4c(cccc4C(F)(F)F)C3=O)c2)COC1
fold change (FC) [1]: 1.01 | fold change (FC) [2]: 1.01 | fold change (FC) [3]: 0.801 | fold change (FC) [4]: 1.01 | fold change (FC) [5]: 2.51 | fold change (FC) [6]: 0.051 | fold change (FC) [7]: >=7.5 | fold change (FC) [8]: 1.31 | fold change (FC) [9]: >=1.001 | IC50 [10]: < 100 nM | fold change (FC) [11]: 0.101

C[C@H](Cc1nncn1C)c1cccc(NC(=O)c2ccnc3ccnn23)c1
fold change (FC) [1]: 1.01 | fold change (FC) [2]: 1.01 | fold change (FC) [3]: 0.801 | fold change (FC) [4]: 1.01 | fold change (FC) [5]: 1.01 | fold change (FC) [6]: 0.051 | fold change (FC) [7]: 2.51 | fold change (FC) [8]: 1.01 | fold change (FC) [9]: >=1.001 | IC50 [10]: < 100 nM | fold change (FC) [11]: 0.101

C[C@H](c1cc2c(c(C(F)(F)F)c1)CN(c1cccc(C3(Cc4nncn4C)COC3)c1)C2=O)N1CCC(F)(F)C1
fold change (FC) [1]: 1.31 | fold change (FC) [2]: 1.01 | fold change (FC) [3]: >=1.001 | fold change (FC) [4]: 2.51 | fold change (FC) [5]: >=7.5 | fold change (FC) [6]: 0.151 | fold change (FC) [7]: >=7.5 | fold change (FC) [8]: 1.31 | fold change (FC) [9]: >=1.001 | IC50 [10]: < 100 nM | fold change (FC) [11]: >=0.201

Cn1cnnc1C[C@](C)(F)c1cccc(N2Cc3c(cccc3C(F)(F)F)C2=O)c1
fold change (FC) [1]: <=1 | fold change (FC) [2]: 1.01 | fold change (FC) [3]: 0.601 | fold change (FC) [4]: 1.01 | fold change (FC) [5]: 1.01 | fold change (FC) [6]: 0.051 | fold change (FC) [7]: 1.01 | fold change (FC) [8]: 1.01 | fold change (FC) [9]: 0.801 | fold change (FC) [11]: 0.101

Cn1cnnc1C(F)(F)[C@](C)(F)c1cccc(N2Cc3c(cc(C(=O)N4CC(C(F)F)C4)cc3C(F)(F)F)C2=O)c1
fold change (FC) [1]: 1.01 | fold change (FC) [2]: 1.01 | fold change (FC) [3]: 0.601 | fold change (FC) [4]: 1.01 | fold change (FC) [5]: 1.01 | fold change (FC) [6]: 0.051 | fold change (FC) [7]: 1.01 | fold change (FC) [8]: 1.01 | fold change (FC) [9]: 0.801 | fold change (FC) [11]: 0.051

C[C@H](Cc1nncn1C)c1cccc(N2Cc3c(ccnc3C(F)(F)F)C2=O)c1
fold change (FC) [1]: 1.01 | fold change (FC) [2]: 1.01 | fold change (FC) [3]: 0.801 | fold change (FC) [4]: 1.01 | fold change (FC) [5]: 2.51 | fold change (FC) [6]: 0.101 | fold change (FC) [7]: 5 | fold change (FC) [8]: 1.01 | fold change (FC) [9]: >=1.001 | fold change (FC) [11]: >=0.201
